Assay results as given in patent publication US20240299316A1, “METHOD FOR TREATING CANCER WITH A[…] RADIATION” (LANTERN PHARMA INC., priority 2021, published 2024).
“Also recorded” adds a separate entry of the source.

System: Panc03.27 xenografts
Assay: Radiation (RT) pretreatment followed by LP-184 in subcutaneous Panc03.27 pancreatic xenografts
Type: in vivo, Mice
Settings: for interaction of radiation with LP-184 on tumor volume (synergy) / mean terminal tumor volume of LP-184+RT group relative to LP-184 alone or RT alone: 4 Gy RT + 3 mg/kg i.p. LP-184, 3 mg/kg; for interaction of radiation with LP-184 on tumor volume (synergy): average tumor volume over days post treatment initiation; for mean terminal tumor volume of LP-184+RT group relative to LP-184 alone or RT alone: p value 0.017
Method: Radiation (RT) pretreatment of pancreatic tumors and subsequent (−)-hydroxyureamethyl acylfulvene treatment in vivo, 4 Gy RT was administered once weekly followed the next day by 3 mg/kg i.p. LP-184 in Panc03.27 xenografts for a total of 3 weeks. Mice bearing pre-established subcutaneous. Panc03.27 xenografts were treated with vehicle control, 4 Gy RT alone, 3 mg/kg LP-184 alone or their combination.
A line plot of average tumor volume in cubic millimeters over days post treatment initiation in Panc03.27 subcutaneous xenograft tumors treated with vehicle control (gray circles; N=6) is shown, 4 Gy RT alone (red squares; N=5), 3 mg/kg i.p. LP-184 alone (green triangles; N=6), and RT+LP-184 (blue inverted triangles; N=10). Error bars represent SEM.

## CC1=C2C(=CC(C)C2CN(O)C(N)=O)C(=O)[C@](C)(O)C12CC2 (single isomer, unassigned; (-)) [LP-184, (−)-hydroxyureamethyl acylfulvene]
  interaction of radiation with LP-184 on tumor volume (synergy): synergized
Listed as hydroxyureamethyl acylfulvene
  interaction of radiation with LP-184 on tumor volume (synergy): synergy
Day 21
  mean terminal tumor volume of LP-184+RT group relative to LP-184 alone or RT alone: statistically significant differences; also recorded: statistically smaller
Day 21, listed as hydroxyureamethyl acylfulvene
  mean terminal tumor volume of LP-184+RT group relative to LP-184 alone or RT alone: statistically smaller
4 Gy RT once weekly followed next day by 3 mg/kg i.p. LP-184, 3 weeks, terminal tumors day 21, p=0.017
  mean tumor volume, fold lower in LP-184+RT animals compared to LP-184 alone animals: ~1.8 fold
LP-184+RT group, day 21, FIG. 3
  comparison of excised xenograft tumors at study termination across treatment arms: smallest mean volume
post-radiation treatment with LP-184, pancreatic cancer
  efficacy of combination therapy using post-radiation treatment: effective
